Test results published in patent publication US12049450B2, “Pyridyloxy-carboxylate derivative and preparation method therefor, herbicidal composition, and use” (Qingdao Kingagroot Chemical Compound Co., Ltd., priority 2018, dated 2024).

How the values were obtained:
Type in all cases: in vivo
Soybean = assay: Spray drift test, application by unmanned gyroplane, soybean field at 10 meters; settings: 600 g/ha, gyroplane at 1 m, gentle breeze
Protocol: Broadleaf crops are very sensitive to hormonal herbicides, therefore crop injuries are more likely to occur in case of spray drifting. Tests were conducted in gentle breeze for the compounds of the present invention. The formulation of the compounds of the present invention was applied by DJI unmanned gyroplane with application height of 1 m and water volume of 20 kg/ha. The use rate was 600 g/ha. The active ingredient was dissolved by acetone and diluted to aqueous solution of Tween 80. There's a soybean field at 10 meters from the application area and the height of soybean plants were about 15 cm at the application time.

Abutilon theophrasti = assay: Post-emergence test experiment (greenhouse pot, spray at 2-3 leaf stage); settings: 1000 g/ha; post-emergence spray at 2-3 leaf stage; assessed after 3 weeks; fresh weight inhibition rate
In short: (§1)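 Activity graded levels 0-5 by fresh-weight inhibition (level 5 above 85%, level 0 below 5%), assessed 3 weeks after treatment. Plants grown in greenhouse pots were sprayed post-emergence at 2-3 leaves using acetone/tween-80 solutions with methyl oleate synergist (1.5 L/ha).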

Galium spurium = assay: as above; settings: 1000 g/ha; post-emergence spray at 2-3 leaf stage; assessed after 3 weeks; fresh weight inhibition rate
In short: as §1

Monochoria vaginalis = assay: as above; settings: 1000 g/ha; post-emergence spray at 2-3 leaf stage; assessed after 3 weeks; fresh weight inhibition rate
In short: as §1

Digitaria sanguinalis = assay: as above; settings: 1000 g/ha; post-emergence spray at 2-3 leaf stage; assessed after 3 weeks; fresh weight inhibition rate
In short: as §1

Echinochloa crusgalli = assay: as above; settings: 1000 g/ha; post-emergence spray at 2-3 leaf stage; assessed after 3 weeks; fresh weight inhibition rate
In short: as §1

Row | Compound | Soybean, injury level by spray drift (Soybean) | Activity level (growth inhibition rate) Abutilon theophrasti (Abutilon theophrasti) | Activity level (growth inhibition rate) Galium spurium (Galium spurium) | Activity level (growth inhibition rate) Monochoria Vaginalis (Monochoria vaginalis) | Activity level (growth inhibition rate) Digitaria sanguinalis (Digitaria sanguinalis) | Activity level (growth inhibition rate) Echinochloa crusgalli (Echinochloa crusgalli)
1 | CC(C)C(Oc1nc(F)c(Cl)c(N)c1Cl)C(=O)OCc1ccccc1 (stereo not shown) [Compound 27] | 0 (Level 0: the growth inhibition rate is less than 5%) | 5 (Level 5: the growth inhibition rate is greater than 85%) | 5 (Level 5: the growth inhibition rate is greater than 85%) | 5 (Level 5: the growth inhibition rate is greater than 85%) | – | –
2 | CN(C)CC(Oc1nc(F)c(Cl)c(N)c1Cl)C(=O)SCc1ccccc1 (stereo not shown) [Compound 46] | 0 (Level 0: the growth inhibition rate is less than 5%) | 5 (Level 5: the growth inhibition rate is greater than 85%) | 5 (Level 5: the growth inhibition rate is greater than 85%) | 5 (Level 5: the growth inhibition rate is greater than 85%) | – | –
3 | Nc1c(Cl)c(F)nc(OC(C(=O)OCc2ccccc2)c2cccs2)c1Cl (stereo not shown) [Compound 54] | 0 (Level 0: the growth inhibition rate is less than 5%) | 5 (Level 5: the growth inhibition rate is greater than 85%) | 5 (Level 5: the growth inhibition rate is greater than 85%) | 5 (Level 5: the growth inhibition rate is greater than 85%) | – | –
4 | N#CC(Oc1nc(F)c(Cl)c(N)c1Cl)C(=O)OCc1ccccc1 (stereo not shown) [Compound 43] | 0 (Level 0: the growth inhibition rate is less than 5%) | 5 (Level 5: the growth inhibition rate is greater than 85%) | 5 (Level 5: the growth inhibition rate is greater than 85%) | 5 (Level 5: the growth inhibition rate is greater than 85%) | – | –
5 | Nc1c(Cl)c(F)nc(OC(C(=O)OCc2ccccc2)C(F)(F)F)c1Cl (stereo not shown) [Compound 41] | 0 (Level 0: the growth inhibition rate is less than 5%) | 5 (Level 5: the growth inhibition rate is greater than 85%) | 5 (Level 5: the growth inhibition rate is greater than 85%) | 5 (Level 5: the growth inhibition rate is greater than 85%) | – | –
6 | Nc1c(Cl)c(F)nc(OC(Cc2ccccc2)C(=O)OCc2ccccc2)c1Cl (stereo not shown) [Compound 53] | 0 (Level 0: the growth inhibition rate is less than 5%) | 5 (Level 5: the growth inhibition rate is greater than 85%) | 5 (Level 5: the growth inhibition rate is greater than 85%) | 5 (Level 5: the growth inhibition rate is greater than 85%) | – | –
7 | CCNc1c(Cl)c(F)nc(OC(C)C(=O)SCc2ccccc2)c1Cl (stereo not shown) [Compound 191] | – | 5 (Level 5: the growth inhibition rate is greater than 85%) | 5 (Level 5: the growth inhibition rate is greater than 85%) | 5 (Level 5: the growth inhibition rate is greater than 85%) | 5 (Level 5: the growth inhibition rate is greater than 85%) | 5 (Level 5: the growth inhibition rate is greater than 85%)
8 | Cc1sc(C)c(COC(=O)C(C)Oc2nc(F)c(Cl)c(N)c2Cl)c1C (stereo not shown) [Compound 155] | – | 5 (Level 5: the growth inhibition rate is greater than 85%) | 5 (Level 5: the growth inhibition rate is greater than 85%) | 5 (Level 5: the growth inhibition rate is greater than 85%) | 5 (Level 5: the growth inhibition rate is greater than 85%) | 5 (Level 5: the growth inhibition rate is greater than 85%)
9 | CC(Oc1nc(F)c(Cl)c(N)c1Cl)C(=O)SCc1ccc2nnccc2c1 (stereo not shown) [Compound 188] | – | 5 (Level 5: the growth inhibition rate is greater than 85%) | 5 (Level 5: the growth inhibition rate is greater than 85%) | 5 (Level 5: the growth inhibition rate is greater than 85%) | 5 (Level 5: the growth inhibition rate is greater than 85%) | 5 (Level 5: the growth inhibition rate is greater than 85%)
10 | CC(Oc1nc(F)c(Cl)c(N)c1Cl)C(=O)OCc1conn1 (stereo not shown) [Compound 153] | – | 5 (Level 5: the growth inhibition rate is greater than 85%) | 5 (Level 5: the growth inhibition rate is greater than 85%) | 5 (Level 5: the growth inhibition rate is greater than 85%) | 5 (Level 5: the growth inhibition rate is greater than 85%) | 5 (Level 5: the growth inhibition rate is greater than 85%)
11 | CC(Oc1nc(Cl)c(Cl)c(N)c1Cl)C(=O)SCc1ccccc1 (stereo not shown) [Compound 24] | – | 5 (Level 5: the growth inhibition rate is greater than 85%) | 5 (Level 5: the growth inhibition rate is greater than 85%) | 5 (Level 5: the growth inhibition rate is greater than 85%) | 5 (Level 5: the growth inhibition rate is greater than 85%) | 5 (Level 5: the growth inhibition rate is greater than 85%)
12 | CC(Oc1nc(F)c(Cl)c(N)c1Cl)C(=O)SCc1ccnnc1 (stereo not shown) [Compound 123] | – | 5 (Level 5: the growth inhibition rate is greater than 85%) | 5 (Level 5: the growth inhibition rate is greater than 85%) | 5 (Level 5: the growth inhibition rate is greater than 85%) | 5 (Level 5: the growth inhibition rate is greater than 85%) | 5 (Level 5: the growth inhibition rate is greater than 85%)
13 | CC(Oc1nc(F)c(Cl)c(N)c1Cl)C(=O)OCc1ccc(C#N)cc1 (stereo not shown) [Compound 91] | – | 5 (Level 5: the growth inhibition rate is greater than 85%) | 5 (Level 5: the growth inhibition rate is greater than 85%) | 5 (Level 5: the growth inhibition rate is greater than 85%) | 5 (Level 5: the growth inhibition rate is greater than 85%) | 5 (Level 5: the growth inhibition rate is greater than 85%)
14 | CC(Oc1nc(F)c(Cl)c(N)c1Cl)C(=O)OCc1ccc2nccnc2c1 (stereo not shown) [Compound 186] | – | 5 (Level 5: the growth inhibition rate is greater than 85%) | 5 (Level 5: the growth inhibition rate is greater than 85%) | 5 (Level 5: the growth inhibition rate is greater than 85%) | 5 (Level 5: the growth inhibition rate is greater than 85%) | 5 (Level 5: the growth inhibition rate is greater than 85%)
15 | CC(Oc1nc(F)c(Cl)c(N)c1Cl)C(=O)SCCc1cnccc1Cl (racemic) [Compound 119] | – | 5 (Level 5: the growth inhibition rate is greater than 85%) | 5 (Level 5: the growth inhibition rate is greater than 85%) | 5 (Level 5: the growth inhibition rate is greater than 85%) | 5 (Level 5: the growth inhibition rate is greater than 85%) | 5 (Level 5: the growth inhibition rate is greater than 85%)
16 | Cc1cc(CSC(=O)C(C)Oc2nc(F)c(Cl)c(N)c2Cl)ccn1 (racemic) [Compound 118] | – | 5 (Level 5: the growth inhibition rate is greater than 85%) | 5 (Level 5: the growth inhibition rate is greater than 85%) | 5 (Level 5: the growth inhibition rate is greater than 85%) | 5 (Level 5: the growth inhibition rate is greater than 85%) | 5 (Level 5: the growth inhibition rate is greater than 85%)
17 | CC(Oc1nc(F)c(Cl)c(N)c1Cl)C(=O)OCc1ccccc1C#N (stereo not shown) [Compound 200] | – | 5 (Level 5: the growth inhibition rate is greater than 85%) | 5 (Level 5: the growth inhibition rate is greater than 85%) | 5 (Level 5: the growth inhibition rate is greater than 85%) | 5 (Level 5: the growth inhibition rate is greater than 85%) | 5 (Level 5: the growth inhibition rate is greater than 85%)
